Experiments:
Type in all cases: in vivo
CD1 or C57BL/6 mice [1] = experiment: Acetic acid-induced abdominal writhing assay (visceral pain); conditions: for ED50: Mus musculus, equimolar dosing; for Analgesia in acetic acid-induced writhing assay: high dose (100 mg/kg), all experimental cohorts
Excerpt: (§1) The investigators were blinded till the completion of all the experiments. To ensure objectivity, investigators were blinded for the acetic acid and tail flick experiments. In the CFA/von Frey and Hargreaves assays, one investigator did the drug pre-treatments, and another investigator at another location who was not aware of the treatments conducted the behavioral testing. Moreover, these studies used the eVF device that electronically registers the grams of force necessary to elicit paw withdrawal, eliminating bias that confounded older versions of this test in which an investigator used a series of individual von Frey microfilaments to determine paw withdrawal thresholds. Six separate experimenters were involved in the data acquisition for behavioral testing, and another separate investigator performed all the statistical analyses using GraphPad Prism Version 9.1.2. Statistical significance was determined by p < 0.05; one-way ANOVA followed by Sidak’s multiple comparisons post hoc test. Mixed-gender experiments were powered to test for gender effects, and different ages of rodents were also included for the experiments – young (2 months) and aged (20 months) to tease out whether there are any effects of age-related changes in nociceptive sensitivity under naïve, and inflammatory pre-clinical rodent pain models. For the aged rats and mice, we could only obtain male Sprague–Dawley rats and male C57BL/6 mice of 20 months old from all commercial animal vendors and from the National Institute of Aging (NIA). So, only these rodents were used for the older animal experimental cohort. Old female rats and mice were not available at the time when these experiments were conducted. For ED50 calculation, dose–response curves were calculated with regression analysis and log transformation using GraphPad Prism 9.1.2.
In this model of visceral pain, abdominal contraction (writhing), in which contraction of the abdominal muscles and stretching of the hind limbs is induced in mice in response to an ip injection of 0.4% acetic acid at a dose of 10 mL/kg 25 min after drug administration, is assessed. Specifically, the number of writhes is counted for 10 min, beginning 5 min after acetic acid injection. […] CD1 (young male and female) or C57BL/6 (aged male) mice were used. For the abdominal writhing assays, we used n = 35 aged male mice, n = 70 young male mice, and n = 70 young female mice.

CD1 or C57BL/6 mice [2] = experiment: Cold stimulation tail flick somatic pain assay; conditions: for ED50: Mus musculus, equimolar dosing; for Analgesia in cold tail-flick assay: high dose (100 mg/kg), all experimental cohorts
Excerpt: as §1
Half of the tail was immersed in ice-cold water maintained at 4 °C. For the tail-flick assays, we used n = 70 aged male mice, n = 90 young male mice, and n = 120 young female mice. Based on the availability of mice at the time of the experiments, different numbers of animals were assigned to different cohorts of experimental animals. Tail flick assay experiments were conducted on an open bench in a dedicated room at the LSUHSC New Orleans Neuroscience Center of Excellence vivarium. Mice were allowed to acclimate to the laboratory environment for 1 h prior to testing. To restrain the mice for the test, disposable plastic 50 mL screw-capped conical centrifuge tubes were cut at the tip to create a 0.5 cm opening to allow the mice to breathe freely. Another 0.5 cm opening was cut into the cap to allow access of the tail to the water bath. A 500 mL glass beaker was filled with 450 mL of ice-cold distilled water maintained at 4 °C with the addition of ice and determined with a glass thermometer. Mice were held over the opening of the water bath, and their tails submerged approximately halfway into the water. The nociceptive threshold was taken as the latency until the mice flicked their tail tip or removed the tail. The time from immersion to the attempted tail tip removal was measured to 1/10th of a sec with a digital laboratory timer. To minimize damage to the tail, a 60-s cut-off was utilized. […] Injections were at doses of 32 mg/kg and 100 mg/kg. 30 min post-drug administration tail-flick/withdrawal latency was measured.

liver of CD1 mice = experiment: Hepatotoxicity at 600 mg/kg: nitrotyrosine, ZO-1 tight junctions, TUNEL, liver function tests; conditions: 15 out of 20 ApAP treated animals; data not shown
CD-1 male mice = experiment: LPS fever induction antipyresis assay; conditions: 75 mg/kg PO, LPS 100 μg/kg ip, n = 20
Protocol: Antipyresis experiments were carried out with n = 60 CD-1 male mice weighing between 45 and 50 g. All mice were kept in a 12-h day/12-h night cycle with free access to food and water ad libitum. After habituating and acclimating the mice for a week, each mouse was briefly anesthetized for 1 min with 1% isoflurane and implanted subcutaneously a transmitter probe that records core body temperature – Implantable Programmable Temperature Transponder (IPTT-300) by Bio Medic Data Systems (BMDS), DE, USA. The mice were allowed to recover for at least one week from the surgery before any recordings were made and observed in their home cages prior to pyrogen challenge for inducing fever. Temperatures were recorded using the BMDS DAS-8027-IUS data reading system.
All mice were fasted overnight (15 h) with free access to water ad libitum prior to the pyrogen challenge. For the induction of fever, LPS from E. coli (100 μg/kg, 0111:B4) (MilliporeSigma, Billerica, MA, USA) was used. Mice received either LPS in 0.9% saline (sterile) (vehicle) or just 0.9% saline as an intraperitoneal (ip) injection.
All drugs and vehicle (10% DMSO: 10% labrasol :80% PEG400) were administered by oral gavage, PO dosing. Each dosing volume was ~ 0.3–0.4 mL per mouse. […] We chose this dose to record antipyretic effect in a low dose that doesn’t cause hypothermia in mice.

[3] = read-out: ED50 Acetic acid writhing Assay (Mice), Aged (Male)
[4] = read-out: ED50 Acetic acid writhing Assay (Mice), Young (Female)
[5] = read-out: ED50 Acetic acid writhing Assay (Mice), Young (Male)
[6] = read-out: ED50 Tail Flick Assay (Mice), Aged (Male)
[7] = read-out: ED50 Tail Flick Assay (Mice), Young (Female)
[8] = read-out: ED50 Tail Flick Assay (Mice), Young (Male)

Compound	ED50 (CD1 or C57BL/6 mice [1]; [3]) [µmol/kg]	ED50 (CD1 or C57BL/6 mice [1]; [4]) [µmol/kg]	ED50 (CD1 or C57BL/6 mice [1]; [5]) [µmol/kg]	Analgesia in acetic acid-induced writhing assay (CD1 or C57BL/6 mice [1])	ED50 (CD1 or C57BL/6 mice [2]; [6]) [µmol/kg]	ED50 (CD1 or C57BL/6 mice [2]; [7]) [µmol/kg]	ED50 (CD1 or C57BL/6 mice [2]; [8]) [µmol/kg]	Analgesia in cold tail-flick assay (CD1 or C57BL/6 mice [2])	Animals dead in 48 h (liver of CD1 mice)	Antipyresis, LPS fever (CD-1 male mice)
CCN(CC)C(=O)c1ccccc1S(=O)(=O)NCC(=O)Nc1ccc(O)cc1 [SRP-001, N,N-diethyl-2-[[2-(4-hydroxyanilino)-2-oxo-ethyl]sulfamoyl]benzamide]	22.1	237	31.1	significant analgesia	81.6	44.9	60	significant analgesia	none	comparable antipyresis
CC(=O)Nc1ccc(O)cc1 [ApAP, acetaminophen, reference compound]	71.6	661	75.8	significant analgesia	281	70.3	71.8	significant analgesia	75%	comparable antipyresis

Source: paper PMC11096368, “Transcriptomic signature, bioactivity and safety of a non-hepatotoxic analgesic generating AM404 in the midbrain PAG region” (Scientific Reports, 2024)
